#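 The compound was tested at five concentrations on cells cultured in 96-well plates, with a 48-hour exposure period. GI50 is the concentration that inhibits growth by half. Definition used: TGI = concentration required for complete inhibition of growth.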
# Experiments:
# Test in all cases: NCI anticancer screen, dose series, 48 h
# [1] = tested on: MDA-MB-231 breast
# [2] = tested on: SN12C renal
# [3] = tested on: SNB-75 CNS
# [4] = tested on: OVCAR-5 ovarian
# [5] = tested on: SF-268 CNS
# [6] = tested on: SK-MEL-2 melanoma
# [7] = tested on: HS 578T breast
# [8] = tested on: UACC-62 melanoma
# [9] = tested on: TK-10 renal
# [10] = tested on: NCI-H226 lung
# [11] = tested on: HT29 colon
# [12] = tested on: SK-MEL-28 melanoma
# [13] = tested on: HCC-2998 colon
# [14] = tested on: KM12 colon
# [15] = tested on: MALME-3M melanoma
# [16] = tested on: MDA-MB-435
# [17] = tested on: T-47D breast
# [18] = tested on: SW-620 colon
# [19] = tested on: SK-OV-3 ovarian
# [20] = tested on: CAKI-1 renal
# [21] = tested on: RXF 393 renal
# [22] = tested on: COLO 205 colon
# [23] = tested on: OVCAR-3 ovarian
# [24] = tested on: RPMI-8226 leukemia
# [25] = tested on: HCT-15 colon
# [26] = tested on: DU-145 prostate
# [27] = tested on: BT-549 breast
# [28] = tested on: HL-60(TB) leukemia
# [29] = tested on: EKVX NSCLC
# [30] = tested on: ACHN renal
# [31] = tested on: NCI-H460 lung
# [32] = tested on: A549 NSCLC
# [33] = tested on: SF-295 CNS
# [34] = tested on: MCF7 breast
# [35] = tested on: NCI-H23 lung
# [36] = tested on: SF-539 CNS
# [37] = tested on: UO-31 renal
# [38] = tested on: IGROV1 ovarian
# [39] = tested on: 786-0 renal
# [40] = tested on: PC-3 prostate
# [41] = tested on: NCI/ADR-RES ovarian
# [42] = tested on: U251 CNS
# [43] = tested on: SK-MEL-5 melanoma
# [44] = tested on: LOX IMVI melanoma
# [45] = tested on: SR leukemia
# [46] = tested on: SNB-19 CNS
# [47] = tested on: OVCAR-8 ovarian
# [48] = tested on: UACC-257 melanoma
# [49] = tested on: M14 melanoma
# [50] = tested on: NCI-H522 lung
# [51] = tested on: OVCAR-4 ovarian
# [52] = tested on: MOLT-4 leukemia
# [53] = tested on: K-562 leukemia
# [54] = tested on: HCT-116 colon
# [55] = tested on: HOP-62 NSCLC
structure (smiles),measurement,setting,value
Cc1cc(S(N)(=O)=O)c(S/C(CC(C)C)=N\Nc2ccc([N+](=O)[O-])cc2)cc1Cl,GI50,[1],2.77 µM
same,TGI,[1],9.52 µM
same,GI50,[2],2.76 µM
same,TGI,[2],9.88 µM
same,GI50,[3],4.05 µM
same,TGI,[3],18.7 µM
same,GI50,[4],14.8 µM
same,TGI,[4],27.9 µM
same,GI50,[5],7.21 µM
same,TGI,[5],23.1 µM
same,GI50,[6],8.22 µM
same,TGI,[6],34.6 µM
same,GI50,[7],11.9 µM
same,TGI,[7],30.1 µM
same,GI50,[8],3.13 µM
same,TGI,[8],8.89 µM
same,GI50,[9],2.93 µM
same,TGI,[9],8.33 µM
same,GI50,[10],2.82 µM
same,TGI,[10],7.77 µM
same,GI50,[11],3.88 µM
same,TGI,[11],15.3 µM
same,GI50,[12],13.9 µM
same,TGI,[12],27.8 µM
same,GI50,[13],2.46 µM
same,TGI,[13],6.27 µM
same,GI50,[14],3.32 µM
same,TGI,[14],13.2 µM
same,GI50,[15],12.5 µM
same,TGI,[15],25 µM
same,GI50,[16],2.92 µM
same,TGI,[16],9.42 µM
same,GI50,[17],3.1 µM
same,TGI,[17],8.33 µM
same,GI50,[18],8.82 µM
same,TGI,[18],29.9 µM
same,GI50,[19],13.7 µM
same,TGI,[19],28.2 µM
same,GI50,[20],2.24 µM
same,TGI,[20],6.85 µM
same,GI50,[21],4.13 µM
same,TGI,[21],19 µM
same,GI50,[22],6.46 µM
same,TGI,[22],20.9 µM
same,GI50,[23],3.19 µM
same,TGI,[23],7.07 µM
same,GI50,[24],2.58 µM
same,TGI,[24],7.28 µM
same,GI50,[25],5.22 µM
same,TGI,[25],31.2 µM
same,GI50,[26],14.4 µM
same,TGI,[26],28 µM
same,GI50,[27],17.7 µM
same,TGI,[27],31.7 µM
same,GI50,[28],7.07 µM
same,TGI,[28],> 100 µM
same,GI50,[29],16.6 µM
same,TGI,[29],31.3 µM
same,GI50,[30],5.44 µM
same,TGI,[30],17.4 µM
same,GI50,[31],4.09 µM
same,TGI,[31],17.8 µM
same,GI50,[32],9.46 µM
same,TGI,[32],27.2 µM
same,GI50,[33],2.31 µM
same,TGI,[33],5.7 µM
same,GI50,[34],2.36 µM
same,TGI,[34],7.27 µM
same,GI50,[35],3.74 µM
same,TGI,[35],12.6 µM
same,GI50,[36],16.2 µM
same,TGI,[36],29.7 µM
same,GI50,[37],11.1 µM
same,TGI,[37],23.6 µM
same,GI50,[38],6.77 µM
same,TGI,[38],21.2 µM
same,GI50,[39],7.15 µM
same,TGI,[39],19.8 µM
same,GI50,[40],3.16 µM
same,TGI,[40],11.9 µM
same,GI50,[41],5.9 µM
same,TGI,[41],19.2 µM
same,GI50,[42],10.6 µM
same,TGI,[42],25.5 µM
same,GI50,[43],11 µM
same,TGI,[43],23.2 µM
same,GI50,[44],5.81 µM
same,TGI,[44],29.2 µM
same,GI50,[45],1.84 µM
same,TGI,[45],6.26 µM
same,GI50,[46],13.2 µM
same,TGI,[46],27.3 µM
same,GI50,[47],16.9 µM
same,TGI,[47],52.8 µM
same,GI50,[48],16.4 µM
same,TGI,[48],33.8 µM
same,GI50,[49],4.99 µM
same,TGI,[49],16.5 µM
same,GI50,[50],18.8 µM
same,TGI,[50],72.2 µM
same,GI50,[51],5.01 µM
same,TGI,[51],20.5 µM
same,GI50,[52],4.57 µM
same,TGI,[52],> 100 µM
same,GI50,[53],5.82 µM
same,TGI,[53],97 µM
same,GI50,[54],3.53 µM
same,TGI,[54],13 µM
same,GI50,[55],13.5 µM
same,TGI,[55],26.4 µM

# Source: PubChem BioAssay (NCI)
